{"source": "patent US8129425B2", "about": "“Small organic molecule regulators of cell proliferation” (Curis, Inc., priority 2000, dated 2012)", "test_system": "patched (ptc-lacZ β-galactosidase reporter)", "experiment": "Ptc-lacZ reporter mice assay (X-gal staining of tissues)", "format": "in vivo", "protocol": "Mice with a β-galactosidase transgene (ptc-lacZ mice) under the regulatory control of the patched locus express the β-galactosidase protein in the same cells where the endogenous mouse patched gene is expressed. The β-galactosidase protein can thus be used as a faithful reporter of the expression of the endogenous patched gene.\nPtc-lacZ mice were divided into four treatment groups and were treated with the following compounds or combinations of compounds for four days, beginning on the first day after birth (dipal-Shh=dipalmitoylated Sonic hedgehog):\nThe vehicle for the agonist was 10% DMSO in PBS (pH 7.2). The agonist was injected from a 4.67 mM stock dissolved in the vehicle solution.\n18 hours following the last injections, the mice were sacrificed and the following tissues were collected: skull, kidney, lung, scapula, skin and heart. All tissues were fixed in 0.2% glutaraldehyde, 5 mM EDTA (pH 8.0), 20 mM MgCl2, 100 mM Na2HPO4 for 30 minutes before staining in 1 mg/ml X-gal, 12.5 mM potassium ferrocyanide, 12.5 mM potassium ferricyanide, 2 mM MgCl2, 0.01% deoxycholate, 0.02% NP-40, and 100 mM Na2HPO4 for 30 hours. Tissues were judged for relative intensity and photographed.\nFIG. 42: Ptc-lacZ mice were divided into two treatment groups and were treated with the following compounds for three days, beginning on the first day after birth:\nThe vehicle for the agonist was 10% DMSO in PBS (pH 7.2). The agonist was injected from a 1.0 mM stock dissolved in the vehicle solution.\nEighteen hours following the last injections, the mice were sacrificed and the forelimbs were collected and processed as described above.\nIn a third experiment, Ptc-lacZ mice were divided into five treatment groups and were treated with the following compounds for four days, beginning on the first day after birth:\nThe vehicle for the agonist was 10% DMSO in PBS (pH 7.2). The agonist was injected from stocks of 0.3, 0.1 and 0.03 mM dissolved in the vehicle solution.", "note": "“Also recorded” adds a separate entry of the source."}
{"molecule": "CNC1CCC(N(Cc2ccc(OC)c(-c3ccc(C#N)cc3)c2)C(=O)c2sc3ccccc3c2Cl)CC1", "note": "(centres unmarked) [D]", "values": [{"measurement": "upregulation of hedgehog pathway in forelimbs (β-galactosidase staining)", "setting": "0.1 mg/kg/injection 4X/day, four days", "result": "very weak upregulation"}, {"measurement": "upregulation of hedgehog pathway in forelimbs (β-galactosidase staining)", "setting": "0.3 mg/kg/injection 4X/day, four days", "result": "greater than that seen with injections of Hh protein at 10 mg/kg/injection"}, {"measurement": "upregulation of hedgehog pathway in forelimbs (β-galactosidase staining)", "setting": "0.9 mg/kg/injection 4X/day, four days", "result": "highest levels of upregulation; also recorded: greater than that seen with injections of Hh protein at 10 mg/kg/injection"}, {"measurement": "upregulation of hedgehog pathway in forelimbs (β-galactosidase staining)", "setting": "4 mg/kg/injection 4X/day, three days, absence of dipal-Shh", "result": "strong upregulation in the nerves, blood vessels, cartilage, and connective tissue; also recorded: greater than that seen with injections of dipal-Shh at 10 mg/kg/injection"}, {"measurement": "dose dependence of hedgehog pathway upregulation in vivo", "setting": "0.1-0.9 mg/kg/injection 4X/day", "result": "dose-responsive manner"}]}
